Laboratory results as given in US5792761A, “Thrombin inhibitors” (Merck & Co., Inc., priority 1997, dated 1998).
Non-standard residues stand in square brackets, D forms with d. Residues, ends and D or L forms follow the SMILES beside them. *: point of attachment. AFC = O=c1cc(C(F)(F)F)c2ccc(N*)cc2o1; pNA = O=[N+]([O-])c1ccc(N*)cc1; Cbz = O=C(OCc1ccccc1)*; Sar = CNCC(=O)O

Tests used:
thrombin = assay: More sensitive thrombin activity assay: hydrolysis of fluorogenic substrate Z-GPR-afc (fluorescence at 500 nm); assay type: biochemical, human; conditions: fluorescence at 500 nm (excitation at 400 nm)
Method: (§1) Assays of human a-thrombin and human trypsin were performed at 25° C. in 0.05M TRIS buffer pH 7.4, 0.15M NaCl, 0.1% PEG. Trypsin assays also contained 1 mM CaCl2.
(§2) In certain studies with potent inhibitors (Ki <10 nM) where the degree of inhibition of thrombin was high, a more sensitive activity assay was employed. […] Concentrations of stock solutions of Z-GPR-afc were determined from measurements of absorbance at 380 nm of the 7-amino-4-trifluoromethyl coumarin produced upon complete hydrolysis of an aliquot of the stock solution by thrombin.
(§3) Activity assays were performed by diluting a stock solution of substrate at least tenfold to a final concentration 0.5 Km into a solution containing enzyme or enzyme equilibrated with inhibitor. Times required to achieve equilibration between enzyme and inhibitor were determined in control experiments. Initial velocities of product formation in the absence (Vo) or presence of inhibitor (Vi) were measured. Assuming competitive inhibition, and that unity is negligible compared Km /[S], […] (where [S], [I], and e respectively represent the total concentrations, of substrate, inhibitor and enzyme), the equilibrium constant (Ki) for dissociation of the inhibitor from the enzyme can be obtained from the dependence of Vo /Vi on [I] shown in equation 1.

human trypsin = assay: In vitro assay for determining proteinase inhibition: human trypsin (sar-PR-pna hydrolysis at 405 nm); assay type: biochemical; conditions: 25° C., pH 7.4, 1 mM CaCl2; chromogenic substrate
Method: (§4) In vitro assay for determining proteinase inhibition
as §1, §3

human thrombin = assay: In vitro assay for determining proteinase inhibition: human thrombin (sar-PR-pna hydrolysis at 405 nm; Z-GPR-afc for potent inhibitors); assay type: biochemical; conditions: 25° C., pH 7.4; chromogenic substrate
Method: as §4, §1, §2, §3

SMILES | Km (thrombin) [µM] | Km (human trypsin) [µM] | Km (human thrombin) [µM]
N=C(N)NCCC[C@H](NC(=O)[C@@H]1CCCN1C(=O)CNC(=O)OCc1ccccc1)C(=O)Nc1ccc2c(C(F)(F)F)cc(=O)oc2c1 [Z-GPR-afc, Cbz-Gly-Pro-Arg-7-amino-4-trifluoromethylcoumarin] (Cbz-Gly-Pro-Arg-{AFC}) | 27 |  | 
CNCC(=O)N1CCC[C@H]1C(=O)N[C@@H](CCCNC(=N)N)C(=O)Nc1ccc([N+](=O)[O-])cc1 [sar-PR-pna, sarcosine-Pro-Arg-p-nitroanilide] (H-[Sar]-Pro-Arg-pNA) |  | 59 | 125
